# From BindingDB's records for doi:10.1002/cbic.201600655 (University At Albany, 2017)
# Target: NAD-dependent protein deacylase sirtuin-6 (Homo sapiens, UniProt Q8N6T7)
# Test: Fluorimetric Assay
# Experimental: Inhibitory constants (Ki) and IC50 values were determined under saturating substrate conditions by using a fluorimetric assay (components were purchased separately). […] Sirtuin deacetylation of the substrate renders the fluorophore-substrate bond susceptible to treatment with […]. Trypsin cleavage releases the fluorophore, resulting in an increase in fluorescence. Fluorescence intensity was measured on a Synergy HT Multi-Mode microplate fluorescence reader.
# NAD-dependent protein deacylase sirtuin-6, sequence (Q8N6T7 whole entry): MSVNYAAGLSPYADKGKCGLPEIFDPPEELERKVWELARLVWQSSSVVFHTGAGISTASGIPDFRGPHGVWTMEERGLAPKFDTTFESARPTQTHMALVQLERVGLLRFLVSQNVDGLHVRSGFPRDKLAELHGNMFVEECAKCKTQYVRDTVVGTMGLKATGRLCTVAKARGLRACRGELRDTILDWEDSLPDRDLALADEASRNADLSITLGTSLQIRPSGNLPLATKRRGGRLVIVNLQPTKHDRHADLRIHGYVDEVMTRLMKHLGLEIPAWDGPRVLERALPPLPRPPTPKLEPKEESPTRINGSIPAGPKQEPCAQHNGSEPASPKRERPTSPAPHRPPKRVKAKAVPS
row,Compound,IC50 [µM]
1,O=C(O)c1cnccn1,927
2,NC(=O)c1cnccn1 [Pyrazinamide],417
